Results from patent publication US9540691B2, “Assays and methods for selecting a treatment regimen for a subject with depression” (THE GENERAL HOSPITAL CORPORATION, priority 2011, dated 2017).
Where two headings read alike, the source gives them in different places.

System: MDD patients carrying the indicated conditions
Conditions: with SSRI
Method: Folate levels are classified as either low (<=2.5 ng/ml) or normal; and homocysteine levels as either normal or elevated (>=[…]). The presence or absence of at least one […] allele for the MTHFR gene are entered as a dichotomous variable (present or absent). […] Using folate as an example predicator, the presence or absence of a low serum-folate level along with treatment assignment can be entered in a 2×2, factorial ANOVA, using depression improvement scores (baseline minus endpoint HAM-D-17 scores) as the dependant variable. […] Similar analyses (i.e. separate 2×2 ANOVA's) can be performed substituting the presence of low folate levels for the presence of other predictors as described herein. Similarly, the effect of other predictors can be indicated by the interaction term representing the potential modulating influence of those variables.
Particularly, specific genetic and biomarkers that were assessed include the following: • (a) BMI calculation of at least about 30 kg/m^2; • (b) an expression ratio of SAM/SAH smaller than 2.8 (e.g., 2.71) as measured in a plasma sample; • (c) a level of 4-HNE no less than 3.28 μg/mL (as measured in a plasma sample); • (d) presence of rare variants CT or TT at position 677 of SEQ ID NO: 1 corresponding to a portion of a genomic nucleic acid sequence of methylenetetrahydrofolate reductase (MTHFR) (abbreviated as “MTHFR 677” below); • (e) presence of rare variants AG or GG at position 2756 of SEQ ID NO: 2 corresponding to a portion of genomic nucleic acid sequence of methionine synthase (MTR) (abbreviated as “MTR 2756” below); and • (f) presence of rare variants AG or GG at position 66 of SEQ ID NO: 3 corresponding to a portion of genomic nucleic acid sequence of methionine synthase reductase (MTRR) (abbreviated as “MTRR 66” below).
The efficacy effect is determined by measuring the mean change in the HAMD-17 score and HAMD-28 score by the end of Phase I and Phase II, as compared to the baseline.

[1] = Phase II, interaction of BMI with the treatment
[2] = Phase II, interaction of HNE-his with the treatment
[3] = Phase II, interaction of SAM/SAH with the treatment
[4] = Pooled phases, 25 =< BMI < 30 kg/m^2 (18, 10)
[5] = Pooled phases, BMI < 25 (14, 7)

SMILES: CN1c2c(nc(N)[nH]c2=O)NC[C@@H]1CNc1ccc(C(=O)N[C@@H](CCC(=O)O)C(=O)O)cc1 [6(S)-5-MTHF, 6(S)-5-methyltetrahydrofolate]
- Effect, change in HAMD-28 score (Phase II, MTR 2756 AA and MTRR 66 AA): −8.000
- Effect, change in HAMD-17 score (Phase II, MTR 2756 AA and SAM/SAH >= median (24,12)): 1.971
- Effect, change in HAMD-28 score (Phase II, MTR 2756 AA and SAM/SAH >= median): 2.000
- Effect, change in HAMD-28 score (Phase II, MTR 2756 AA): −0.446
- Effect, change in HAMD-17 score (Phase II, MTR 2756 AG or GG and BMI >= 30 kg/m^2 (10,5)): −12.167
- Effect, change in HAMD-28 score (Phase II, MTR 2756 AG or GG and BMI >= 30 kg/m^2): −13.000
- Effect, change in HAMD-17 score (Phase II, MTR 2756 AG or GG and HNE-His >= median (13,7)): −8.417
- Effect, change in HAMD-28 score (Phase II, MTR 2756 AG or GG and HNE-His >= median = 3.28 (plasma sample)): −9.500
- Effect, change in HAMD-17 score (Phase II, MTR 2756 AG or GG and MTRR 66 AG or GG (15,7)): −4.667
- Effect, change in HAMD-17 score (Phase II, MTR 2756 AG or GG and MTRR 66 AG or GG and BMI >= 30 kg/m^2 (8,4)): −11.000
- Effect, change in HAMD-28 score (Phase II, MTR 2756 AG or GG and MTRR 66 AG or GG and BMI >= 30 kg/m^2): −12.000
- Effect, change in HAMD-17 score (Phase II, MTR 2756 AG or GG and MTRR 66 AG or GG and HNE-His >= median (10,4)): −11.000
- Effect, change in HAMD-28 score (Phase II, MTR 2756 AG or GG and MTRR 66 AG or GG and HNE-His >= median): −12.000
- Effect, change in HAMD-17 score (Phase II, MTR 2756 AG or GG and MTRR 66 AG or GG and SAM/SAH < median (8,3)): −6.500
- Effect, change in HAMD-28 score (Phase II, MTR 2756 AG or GG and MTRR 66 AG or GG and SAM/SAH < median = 2.71 (plasma sample)): −10.500
- Effect, change in HAMD-28 score (Phase II, MTR 2756 AG or GG and MTRR 66 AG or GG): −6.583
- Effect, change in HAMD-17 score (Phase II, MTR 2756 AG or GG and SAM/SAH < median (10,4)): −2.500
- Effect, change in HAMD-28 score (Phase II, MTR 2756 AG or GG and SAM/SAH < median = 2.71 (plasma sample)): −7.500
- Effect, change in HAMD-17 score (Phase II, MTR 2756 AG/GG (20,11)): −3.600
- Effect, change in HAMD-28 score (Phase II, MTR 2756 AG/GG): −5.300
- Effect, change in HAMD-17 score (Phase II, MTRR 66 AA and HNE-His < median (8,5)): −1.667
- Effect, change in HAMD-28 score (Phase II, MTRR 66 AA and HNE-His < median = 3.28 (plasma sample)): −2.000
- Effect, change in HAMD-17 score (Phase II, MTRR 66 AA and SAM/SAH >= median (9,6)): −3.000
- Effect, change in HAMD-28 score (Phase II, MTRR 66 AA and SAM/SAH >= median): −3.333
- Effect, change in HAMD-17 score (Phase II, MTRR 66 AG or GG and HNE-His >= median (24,11)): −3.500
- Effect, change in HAMD-28 score (Phase II, MTRR 66 AG or GG and HNE-His >= median): −4.071
- Effect, change in HAMD-17 score (Phase II, MTRR 66 AG or GG and SAM/SAH < median (24,10)): −6.190
- Effect, change in HAMD-28 score (Phase II, MTRR 66 AG or GG and SAM/SAH < median = 2.71 (plasma sample)): −7.381
- Effect, change in HAMD-17 score (Phase II, SAM/SAH < median and HNE-His >= median (19,7)): −9.000
- Effect, change in HAMD-28 score (Phase II, SAM/SAH < median and HNE-His >= median): −12.000
- Effect, change in HAMD-17 score (Phase II, SAM/SAH >= median and HNE-His < median (18,8)): 4.000
- Effect, change in HAMD-28 score (Phase II, SAM/SAH >= median and HNE-His < median): 4.500
- Effect, change in HAMD-17 score: BMI*treat [1]: 0.113
- Effect, change in HAMD-28 score: BMI*treat [1]: 0.082
- Effect, change in HAMD-17 score: HNE-his*treat [2]: 2.027
- Effect, change in HAMD-28 score: HNE-his*treat [2]: 2.362
- Effect, change in HAMD-17 score: SAM/SAH*treat [3]: 1.483
- Effect, change in HAMD-28 score: SAM/SAH*treat (last line) [3]: 1.806
- Effect, change in HAMD-17 score: baseHAMD-17*treat (Phase II, interaction of base HAMD-17 with the treatment): −0.249
- Effect, change in HAMD-28 score: SAM/SAH*treat (first line under HAMD28) (Phase II, interaction with the treatment): 1.483
- Effect, change in HAMD-17 score [4]: 3.331
- Effect, change in HAMD-28 score [4]: 2.054
- Effect, change in HAMD-17 score [5]: −1.248
- Effect, change in HAMD-28 score [5]: −1.018
- Effect, change in HAMD-17 score (Pooled phases, BMI < 30 kg/m^2 and HNE-His < median (19, 9)): 4.738
- Effect, change in HAMD-28 score (Pooled phases, BMI < 30 kg/m^2 and HNE-His < median): 4.253
- Effect, change in HAMD-17 score (Pooled phases, BMI < 30 kg/m^2 and SAM/SAH >= median (16,8)): 2.583
- Effect, change in HAMD-28 score (Pooled phases, BMI < 30 kg/m^2 and SAM/SAH >= median): 2.906
- Effect, change in HAMD-28 score (Pooled phases, BMI >= 30 kg/m^2 (40,21)): −4.660
- Effect, change in HAMD-17 score (Pooled phases, BMI >= 30 kg/m^2 and HNE-His >= median (23, 11)): −5.420
- Effect, change in HAMD-17 score (Pooled phases, BMI >= 30 kg/m^2 and SAM/SAH < median (21,9)): −7.302
- Effect, change in HAMD-28 score (Pooled phases, BMI >= 30 kg/m^2 and SAM/SAH < median = 2.71 (plasma sample)): −7.572
- Effect, change in HAMD-17 score (Pooled phases, MTHFR 677 CC and BMI < 30 kg/m^2 (17,8)): 1.356
- Effect, change in HAMD-28 score (Pooled phases, MTHFR 677 CC and BMI < 30 kg/m^2): −0.234
- Effect, change in HAMD-17 score (Pooled phases, MTHFR 677 CC and HNE-His < median (20,11)): −1.050
- Effect, change in HAMD-28 score (Pooled phases, MTHFR 677 CC and HNE-His < median = 3.28 (plasma sample)): −1.340
